The values that follow are results of earlier work, collected in patent publication EP0848611B1, “TACRINE PATCH” (HEXAL AG, priority 1995, dated 1997).

For series [1] the following is noted: in vivo.

Molecules are shown by their SMILES.

`Nc1c2c(nc3ccccc13)CCCC2` [Tacrin, 1,2,3,4-Tetrahydro-9-acridinamin]: in series [1] (human), the Bioverfügbarkeit is listed as 10-30% and the Halbwertszeit is reported as 1,5-3,5 h. Besides, the “therapeutischer Blutspiegel” value in series [1] is 5 to 70 ng/mL. Further, under “patients”, the “Anstieg der ALT-Werte (Alaninaminotransferase)” value was ≤ 20 fachen der oberen normalen Grenze. For the same molecule, the “hepatotoxischer Effekt tritt auf” value (share of patients) was “etwa der Hälfte der Patienten”.
